Test results reported in patent publication US20250154154A1 (Relay Binney Street, 2nd Floor, priority 2020, published 2025).
Where a name gives a salt, the structure may show the parent alone.

Legend:
[1] = test system: phospho-S6RP (Ser 235/236) in RBE cells; test: Cellular Proliferation Protocol (cellular phospho-S6RP HTRF), RBE cells; assay type: cell-based; conditions: 6 hours treatment, RBE or SNU-1079 cells, cell line not given
Description: Cellular Proliferation Protocol
Cellular phospho-S6RP (Ser 235/236) was measured using a Fluorescence Resonance Energy Transfer (FRET) sandwich assay format (Cisbio HTRF Cat. No. 64RP6PEG). This format uses 2 different, labelled antibodies (Eu^3+-Cryptate donor and d2 acceptor) that positively modulate a specific signal in proportion to phospho-S6RP (Ser 235/236) directly in cells. RBE or SNU-1079 cells were cultivated in T-75 flasks at 37° C., 5% CO2, 95% relative humidity in RPMI 1640 medium with 10% FBS and 1% Penicillin/Streptomycin and detached with trypsin/EDTA at 80-90% confluency. Cells were then seeded in 40 μL volume per well in 384-well flat-bottom polystyrene microplates (Corning Cat. No. 3570) at a seeding density of 2000 cells/well for RBE and 3000 cells/well for SNU-1079 followed by 24 hour incubation at 37° C., 5% CO2, 95% relative humidity. On the next day, compounds were diluted to […] the indicated concentrations and 40 nL of these treatment compounds, along with DMSO vehicle control, were added to the cells (final concentration of compounds is then the indicated concentrations). Treatment was carried out for 6 hours at 37° C., 5% CO2, 95% relative humidity after which the plates were cooled to room temperature before aspirating the medium. Cells were then lysed on a shaker for 45 minutes at room temperature with 20 μL of 1× supplemented lysis buffer per well. After lysis, 5 μL of pre-mixed antibodies was added per well. Plates were covered with black sealing film and incubated overnight at room temperature on a shaker before being read on a PerkinElmer EnVision microplate reader. Percent activation was calculated relative to DMSO control and IC50 values were obtained from dose-response data fitted to a 4-parameter curve.

SRC = SRC (Homo sapiens, UniProt P12931); test: SRC Biochemical Assay Protocol (microfluidic mobility shift assay, FLPeptide4 substrate)
Procedure, shortened: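 Mobility-shift readout of phosphorylated FLPeptide4 (1.5 μM) after 90 min kinase reaction with 50 μM ATP and 0.26 nM SRC in pH 7.4 HEPES buffer. Compounds, tested 0.0017–100 μM, were preincubated 30 min with enzyme and peptide; IC50 from 4-parameter logistic fit versus neutral controls.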

RBE cells = test: Cell Viability Protocol (CellTiterGlo), RBE cells; assay type: cell-based; conditions: RBE or SNU-1079 cells, 72 or 120 hour, cell line and time not given
Procedure, shortened: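 After 72 h or 120 h compound exposure at 37° C, viability was read by CellTiterGlo as % of DMSO vehicle, with IC50 fitted by a 4-parameter curve. Cells had been seeded at 1200/well in 10% FBS RPMI 1640 and allowed 24 h before dosing.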

Molecule | IC50 ([1]; 6 h) [µM] | IC50 (SRC) [µM] | IC50 (RBE cells) [µM] | IC50 [1] [µM]
C=CC(=O)N1CCC(C#Cc2c(-c3ccc(Oc4ccccc4)cc3)c3c(N)ncnc3n2C(C)CO)CC1 (stereo not drawn) [Example I-27] | ≤ 0.01 | 0.01 to 1 | 0.01 to 1 | –
C=CC(=O)N1CCC(N2CC(C#Cc3c(-c4ccc(Cl)c(CO)c4)c4c(N)ncnc4n3C)C2)CC1 [II-90] | – | 0.01 to 1 | 0.01 to 1 | 0.01 to 1
C=CC(=O)N1CC[C@@H](N2CC(C#Cc3c(-c4ccc(Cl)cc4)c4c(N)ncnc4n3C)C2)[C@@H](O)C1 [II-26] | – | 0.01 to 1 | 0.01 to 1 | 0.01 to 1
C=CC(=O)N1CC[C@H](N2CC(F)(C#Cc3c(-c4ccc(Oc5cccc(C)n5)cc4)c4c(N)ncnc4n3C)C2)[C@@H](O)C1 [II-220, 1-((3S,4S)-4-(3-((4-amino-7-methyl-5-(4-((6-methylpyridin-2-yl)oxy)phenyl)-7H-pyrrolo[2,3-d]pyrimidin-6-yl)ethynyl)-3-fluoroazetidin-1-yl)-3-hydroxypiperidin-1-yl)prop-2-en-1-one] | 0.01 to 1 | 0.01 to 1 | 0.01 to 1 | –
C=CC(=O)N1CC[C@@H](N2CC(C#Cc3c(-c4ccc5c(c4)OCCO5)c4c(N)ncnc4n3C)C2)[C@@H](O)C1 [II-74] | – | 0.01 to 1 | 0.01 to 1 | 0.01 to 1
C=CC(=O)N1CCC(N2CC(C#Cc3c(-c4ccc(Oc5cccc(C)n5)cc4)c4c(N)ncnc4n3C)C2)C[C@H]1CO (stereo partly drawn) [II-199, 1-((2S)-4-(3-((4-amino-7-methyl-5-(4-(6-methylpyridin-2-yloxy)phenyl)-7H-pyrrolo[2,3-d]pyrimidin-6-yl)ethynyl)azetidin-1-yl)-2-(hydroxymethyl)piperidin-1-yl)prop-2-en-1-one] | ≤ 0.01 | ≤ 0.01 | ≤ 0.01 | –
C=CC(=O)N1CCC(C#Cc2[nH]c3ncnc(N)c3c2-c2ccc(Oc3ccccc3)cc2)CC1 [Example I-1] | ≤ 0.01 | 0.01 to 1 | 0.01 to 1 | –
C=CC(=O)N1CCC(N2CC(C#Cc3c(-c4ccc(Cl)cn4)c4c(N)ncnc4n3C)C2)CC1 [II-325] | – | 0.01 to 1 | 1 to 10 | 1 to 10
C=CC(=O)N1CCC(N2CC(C#Cc3c(-c4ccc(OC5CC5)cc4)c4c(N)ncnc4n3C)C2)CC1 [II-100] | – | 1 to 10 | 0.01 to 1 | 0.01 to 1
C=CC(=O)N1CCC(N2CC(C#Cc3c(-c4ccc(Oc5cccc(C)n5)c(OC)c4)c4c(N)ncnc4n3C)C2)CC1 [II-81] | – | 0.01 to 1 | 0.01 to 1 | 0.01 to 1
C=CC(=O)N1C[C@@H]2[C@@H](C#Cc3c(-c4ccc(Oc5ccccc5)cc4)c4c(N)ncnc4n3C3CCOC3)[C@@H]2C1 (stereo partly drawn) [II-209, 1-((1R,5S,6s)-6-((4-amino-5-(4-phenoxyphenyl)-7-(tetrahydrofuran-3-yl)-7H-pyrrolo[2,3-d]pyrimidin-6-yl)ethynyl)-3-aza-bicyclo[3.1.0]hexan-3-yl)prop-2-en-1-one] | ≤ 0.01 | ≤ 0.01 | ≤ 0.01 | –
1-((3R,4S)-4-(3- ((4-amino-5-(4-(3- fluorophenoxy) phenyl)-7-methyl-7H- pyrrolo[2,3- d]pyrimidin-6- yl)ethynyl)azetidin- 1-yl)-3- hydroxypiperidin- 1-yl)prop-2-en-1- one [II-249] | – | 0.01 to 1 | ≤ 0.01 | ≤ 0.01
C=CC(=O)NCC(=O)N1C[C@@H]2[C@@H](C#Cc3c(-c4ccc(Oc5cccc(C)n5)cc4)c4c(N)ncnc4n3C)[C@@H]2C1 [II-212, N-[2-[(1R,5S,6S)-6-[2-(4-amino-7-methyl-5-[4-[(6-methylpyridin-2-yl)oxy]phenyl]-7H-pyrrolo[2,3-d]pyrimidin-6-yl)ethynyl]-3-azabicyclo[3.1.0]hexan-3-yl]-2-oxoethyl]prop-2-enamide] | ≤ 0.01 | ≤ 0.01 | ≤ 0.01 | –
C=CC(=O)N1CC[C@@H](N2CC(C#Cc3c(-c4ccc(OC5COC5)cc4)c4c(N)ncnc4n3C(C)C)C2)[C@@H](O)C1 [II-57] | – | 0.01 to 1 | 1 to 10 | 1 to 10
C=CC(=O)N1CCC(N2CC(F)(C#Cc3c(-c4ccc(Oc5ccccc5)c(OC)c4)c4c(N)ncnc4n3C)C2)CC1 [II-246, 1-(4-(3-((4-amino-5-(3-methoxy-4-phenoxyphenyl)-7-methyl-7H-pyrrolo[2,3-d]pyrimidin-6-yl)ethynyl)-3-fluoroazetidin-1-yl)piperidin-1-yl)prop-2-en-1-one] | 0.01 to 1 | 0.01 to 1 | ≤ 0.01 | –
C=CC(=O)N1CCC(N2CC(C#Cc3c(-c4ccc(Cl)c(OC)c4)c4c(N)ncnc4n3CCOC)C2)CC1 [II-87] | – | 0.01 to 1 | 0.01 to 1 | 0.01 to 1
CN(C)C/C=C/C(=O)N1CCCC(C#Cc2c(-c3ccc(Oc4ccccc4)cc3)c3c(N)ncnc3n2C)CC1 (stereo not drawn) [II-179, (E)-1-(4-((4-amino-7-methyl-5-(4-phenoxyphenyl)-7H-pyrrolo[2,3-d]pyrimidin-6-yl)ethynyl)azepan-1-yl)-4-(dimethylamino) but-2-en-1-one] | 0.01 to 1 | 0.01 to 1 | 0.01 to 1 | –
C=CC(=O)N1CCC(O)(C#Cc2c(-c3ccc(Oc4cccc(C)n4)c(OC)c3)c3c(N)ncnc3n2C)CC1 [II-304, formate] | 0.01 to 1 | 0.01 to 1 | 0.01 to 1 | –
C=CC(=O)N1CCC(N2CC(C#Cc3c(-c4ccc(Cl)c(O)c4)c4c(N)ncnc4n3C)C2)CC1 [II-95] | – | ≤ 0.01 | 0.01 to 1 | 0.01 to 1
C=CC(=O)N1CCC(N2CC(C#Cc3c(-c4ccc(Oc5ccccc5)cc4)c4c(N)ncnc4n3[C@@H](C)CO)C2)CC1 [II-169, (S)-1-(4-(3-((4-amino-7-(1-hydroxypropan-2-yl)-5-(4-phenoxyphenyl)-7H-pyrrolo[2,3-d]pyrimidin-6-yl)ethynyl)azetidin-1-yl)piperidin-1-yl)prop-2-en-1-one] | ≤ 0.01 | 0.01 to 1 | ≤ 0.01 | –
C=CC(=O)N1CCC(N2CC(C#Cc3c(-c4ccc(OC(F)(F)F)cc4)c4c(N)ncnc4n3C)C2)CC1 [II-103] | – | 0.01 to 1 | 0.01 to 1 | 0.01 to 1
COc1cc(-c2c(C#C[C@@H]3[C@H]4CN(C(=O)/C=C/CN(C)C)C[C@@H]34)n(C)c3ncnc(N)c23)ccc1Oc1cccc(C)n1 [II-239, (E)-1-((1R,5S,6s)-6-((4-amino-5-(3-methoxy-4-((6-methylpyridin-2-yl)oxy)phenyl)-7-methyl-7H-pyrrolo[2,3-d]pyrimidin-6-yl)ethynyl)-3-azabicyclo[3.1.0]hexan-3-yl)-4-(dimethylamino) but-2-en-1-one] | 0.01 to 1 | 0.01 to 1 | 0.01 to 1 | –
C=CC(=O)N1CCC(N2CC(C#Cc3c(-c4ccc(C5CC5)c(OC)c4)c4c(N)ncnc4n3C)C2)CC1 [II-97] | – | 0.01 to 1 | 0.01 to 1 | 0.01 to 1
C=CC(=O)N1CC[C@@H](N2CC(C#Cc3c(-c4ccc(OC)c(OC)c4)c4c(N)ncnc4n3C)C2)[C@@H](O)C1 [II-76] | – | 0.01 to 1 | 1 to 10 | 1 to 10
C=CC(=O)N1CC2C(C#Cc3c(-c4cccc5c4OC(F)(F)O5)c4c(N)ncnc4n3C)C2C1 (stereo not drawn) [II-129] | – | 1 to 10 | 0.01 to 1 | 1 to 10
C=CC(=O)N1CCC(N2CC(C#Cc3c(-c4cccc5c4cnn5C)c4c(N)ncnc4n3C)C2)CC1 [II-93] | – | 1 to 10 | 1 to 10 | 1 to 10
C=CC(=O)N1CC[C@@H](N2CC(C#Cc3c(-c4ccc(Oc5ccccc5)c(OC)n4)c4c(N)ncnc4n3C)C2)[C@@H](F)C1 [II-330] | – | ≤ 0.01 | ≤ 0.01 | ≤ 0.01
C=CC(=O)N1CC[C@@H](N2CC(C#Cc3c(-c4ccc(Cl)c(CO)c4)c4c(N)ncnc4n3C)C2)[C@@H](O)C1 [II-59] | – | 0.01 to 1 | 1 to 10 | 0.01 to 1
C=CC(=O)N1C[C@@H]2[C@@H](C#Cc3c(-c4cccc5c4OCO5)c4c(N)ncnc4n3C(C)C)[C@@H]2C1 [II-132] | – | ≤ 0.01 | ≤ 0.01 | ≤ 0.01
Cn1c(C#CC2CCCN(C(=O)/C=C/CN3CCC3)CC2)c(-c2ccc(Oc3ccccc3)cc2)c2c(N)ncnc21 (stereo not drawn) [II-182, (E)-1-(4-((4-amino-7-methyl-5-(4-phenoxyphenyl)-7H-pyrrolo[2,3-d]pyrimidin-6-yl)ethynyl)azepan-1-yl)-4-(azetidin-1-yl)but-2-en-1-one] | ≤ 0.01 | ≤ 0.01 | ≤ 0.01 | –
